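Exposure lasted 48 hours, with cells grown in 96-well plates and compounds tested at five concentrations. GI50 is the concentration that inhibits growth by half. TGI denotes the concentration required for complete inhibition of growth.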
Assays:
Test in all cases: inhibition of tumour cell growth, NCI panel, 48 h
A549 NSCLC = system: A549 NSCLC
M14 melanoma = system: M14 melanoma
COLO 205 colon = system: COLO 205 colon
HOP-62 NSCLC = system: HOP-62 NSCLC
DU-145 prostate = system: DU-145 prostate
NCI/ADR-RES ovarian = system: NCI/ADR-RES ovarian
T-47D breast = system: T-47D breast
OVCAR-8 ovarian = system: OVCAR-8 ovarian
SK-MEL-2 melanoma = system: SK-MEL-2 melanoma
HOP-92 NSCLC = system: HOP-92 NSCLC

SMILES | GI50 (A549 NSCLC) [µM] | TGI (A549 NSCLC) [µM] | GI50 (M14 melanoma) [µM] | TGI (M14 melanoma) [µM] | GI50 (COLO 205 colon) [µM] | TGI (COLO 205 colon) [µM] | GI50 (HOP-62 NSCLC) [µM] | TGI (HOP-62 NSCLC) [µM] | GI50 (DU-145 prostate) [µM] | TGI (DU-145 prostate) [µM] | GI50 (NCI/ADR-RES ovarian) [µM] | TGI (NCI/ADR-RES ovarian) [µM] | GI50 (T-47D breast) [µM] | TGI (T-47D breast) [µM] | GI50 (OVCAR-8 ovarian) [µM] | TGI (OVCAR-8 ovarian) [µM] | GI50 (SK-MEL-2 melanoma) [µM] | TGI (SK-MEL-2 melanoma) [µM] | TGI (HOP-92 NSCLC) [µM] | GI50 (HOP-92 NSCLC) [µM]
COc1cccc(NC(=O)c2ccc(NC3=C(Cl)C(=O)N(Cc4ccccc4)C3=O)cc2)c1 | 13.6 | 38 | 17.3 | 31.7 | 23.7 | > 100 | 19.1 | 34.8 | 19 | 38.6 | 16.3 | 29.8 | 21.5 | > 100 | 4.17 | 16.5 |  |  |  | 
COC(=O)[C@H](Cc1cn(C)cn1)NC(=O)[C@@H](NC(=O)Nc1cc(C(F)(F)F)cc(C(F)(F)F)c1)C(C)(C)C | > 10 | > 10 | > 10 | > 10 | > 10 | > 10 | > 10 | > 10 | > 10 | > 10 | > 10 | > 10 | > 10 | > 10 | > 10 | > 10 | > 10 | > 10 |  | 
CC1=CC2=C(C#N)C(=O)OC2(C)C(c2ccccc2)C1 (stereo unspecified) |  | > 100 |  | > 100 |  |  |  | > 100 |  | > 100 |  | > 100 |  |  |  | > 100 |  | > 100 | > 100 | 
COc1cc(/C=C2\Cc3ccccc3C2=O)cc(OC)c1OC |  | > 100 |  | > 100 |  | > 100 |  | > 100 |  |  |  |  |  |  |  | > 100 |  | > 100 | > 100 | 
C/C(=N\NS(=O)(=O)c1c(C)cc(C)cc1C)c1ccc[n+]([O-])n1 |  | > 100 |  | 20.7 |  |  |  | > 100 |  |  |  |  |  |  |  | 79 |  |  | 22.8 | 
Clc1nc(-c2ccccc2)nc(Cl)c1Cl |  | 33.1 |  | 19.7 |  | 23 |  | 32.3 |  | 29.9 |  | 61.3 |  | 28.5 |  | 41.2 |  |  | 30.3 | 
Fc1ccc2c(c1)cc1ccc3cccc4ccc2c1c34 |  | > 100 |  | > 100 |  | > 100 |  | > 100 |  |  |  |  |  |  |  | > 100 |  | > 100 | > 100 | 
COc1ccc(NS(=O)(=O)c2ccc(N=C3C=C(Nc4ccc(S(=O)(=O)Nc5ccc(OC)nn5)cc4)C(=O)c4ccccc43)cc2)nn1 |  | 32.2 |  | 31.3 |  | 32.5 |  |  |  |  |  |  |  |  |  | 34.8 |  | 33.2 | 88.8 | 
COc1ccc2c(c1OC)C(C=C(c1ccccc1)c1ccccc1)CN(C)C2 (stereo unspecified) |  | 88.2 |  | 31.3 |  | 28.5 |  | 62.2 |  |  |  |  |  |  |  | 67 |  |  | 40.1 | 
O=C(COC(=O)c1cccc2c(=O)c3ccccc3[nH]c12)Nc1ccc(S(=O)(=O)Nc2ncccn2)cc1 |  | > 100 |  | > 100 |  | > 100 |  | > 100 |  |  |  |  |  |  |  | > 100 |  |  | 51 | 
CN=C(N)NC |  | > 100 |  | > 100 |  | > 100 |  | > 100 |  |  |  |  |  |  |  | > 100 |  | > 100 | > 100 | 
CC(C)c1cc(C(=O)[O-])c(O)c(C(C)C)c1.CC(C)c1cc(C(=O)[O-])c(O)c(C(C)C)c1.CC(C)c1cc(C(=O)[O-])c(O)c(C(C)C)c1.CC(C)c1cc(C(=O)[O-])c(O)c(C(C)C)c1.CC(C)c1cc(C(=O)[O-])c(O)c(C(C)C)c1.CC(C)c1cc(C(=O)[O-])c(O)c(C(C)C)c1.[Cu+2].[Mn+2].[Mn+2] | 11.1 | 33.8 | 14.8 | 30.4 | 10.9 | 25.6 | 21 | 42 |  |  |  |  |  |  | 29.3 | 81 | 20.4 | 42.6 | 54 | 19.9
COc1c(N2CCN(CN3C(=O)C(=O)c4ccccc43)C(C)C2)c(F)cc2c(=O)c(C(=O)O)cn(C3CC3)c12 (stereo unspecified) | > 100 | > 100 | > 100 | > 100 | 66.5 | > 100 |  |  | 49.9 | > 100 | > 100 | > 100 |  |  | > 100 | > 100 | > 100 | > 100 |  | 
COc1cc2ccc3c4cc(OC)c(OC(C)C)cc4c[n+](C)c3c2cc1OC |  | > 100 |  | > 100 |  | 36.5 |  | > 100 |  |  |  |  |  |  |  | > 100 |  | 55.6 | > 100 | 
O=C(CC1SC(=Nc2ccccc2Cl)NC1=O)Nc1ccc(Cl)cc1 (stereo unspecified) |  | > 100 |  | > 100 |  | 48.7 |  | > 100 |  |  |  |  |  |  |  |  |  | > 100 |  | 
CCOC(=O)c1csc(-c2nc(CCNC(=O)c3ccccc3)sc2Cl)n1 |  | > 100 |  | > 100 |  | > 100 |  | > 100 |  | > 100 |  | > 100 |  |  |  | > 100 |  |  | 46.4 | 
CC(C)C1NC(=O)[C@H](C)OC(=O)[C@@H](C(C)C)NC(=O)[C@@H](C)OC(=O)C(C(C)C)NC(=O)[C@H](C)OC1=O (stereo partly specified) |  | > 100 |  | > 100 |  | > 94.8 |  | > 100 |  |  |  |  |  |  |  | > 100 |  | > 100 | > 100 | 
CC(=O)OC1(C#N)CC2OC1C1N=NN(C(=O)OC(C)(C)C)C21 (stereo unspecified) |  |  |  | 51.2 |  | > 100 |  | > 100 |  |  |  |  |  |  |  | > 100 |  | > 100 | > 31.6 | 
CC(C)(C)C1CCC(=O)C(C(O)CC2CC(=O)N(c3ccccc3)C(=O)C2)C1 (stereo unspecified) |  | > 100 |  | > 100 |  | > 100 |  | > 100 |  |  |  |  |  |  |  | > 100 |  |  | > 100 | 
N.N.NCCCCCN.O=C([O-])CC(=O)[O-].O=C([O-])CC(=O)[O-].[Pt+4].[Pt+4] | > 100 | > 100 | > 100 | > 100 | > 100 | > 100 | 43 | > 100 |  |  |  |  |  |  | > 100 | > 100 | > 100 | > 100 | > 100 | > 100

Reference: PubChem BioAssay (NCI)
